{"source": "patent US20130090318A1", "about": "“ONCE-A-MONTH METHOD OF CONTRACEPTION” (LABORATOIRE HRA-PHARMA, priority 2010, published 2013)", "test_system": "women", "assay": "Effect of one intake of levonorgestrel within different stages of the menstrual cycle on women pregnancies", "assay_type": "in vivo", "details": "levonorgestrel 1.5 mg single oral tablet, 1,117 women", "protocol": "1,117 women (aged 24.9+/−6.5 years) received levonorgestrel (1.5 mg) in form of a single oral tablet during different stages of their menstrual cycle.\nThe reference (day 0) is the ovulation. The fertile period extends from five days before the ovulation to one day after the ovulation.", "data": [{"smiles": "C#C[C@]1(O)CC[C@H]2[C@@H]3CCC4=CC(=O)CC[C@@H]4[C@H]3CC[C@@]21CC", "note": "[levonorgestrel, D-(−)-ethyl-13β ethynyl-17α hydroxy-17 gonene-4 one-3]", "values": [{"measurement": "% pregnancies (failures)", "setting": "menstrual cycle stage <−5 day (day 0 = ovulation)", "value": 0, "unit": "%"}, {"measurement": "% pregnancies (failures)", "setting": "menstrual cycle stage >+1 day (day 0 = ovulation)", "value": 44, "unit": "%"}, {"measurement": "% pregnancies (failures)", "setting": "menstrual cycle stage between −5 and +1 day (fertile period)", "value": 56, "unit": "%"}]}]}
